According to US20170369475A1, “Flibanserin Hydrate” (Sandoz AG, priority 2016, published 2017):
“Also recorded” adds a separate entry of the source.

Assay: Gravimetric moisture sorption (GMS)
Format: physicochemical
Details: 25±0.1° C.
Description: Moisture sorption isotherms were recorded with an SPSx-1 μ moisture sorption analyzer (ProUmid, Ulm). The measurement cycle was started at ambient relative humidity (RH) of 30%. RH was then decreased to 5% in 5% steps, followed by a further decrease to 3% and to 0%. […] Finally, RH was increased to ambient relative humidity of 30% in 5% steps.
The time per step was set to a minimum of 2 hours and a maximum of 6 hours. If an equilibrium condition with a constant mass of ±0.01% within 1 hour was reached before the maximum time for all examined samples the sequential humidity step was applied before the maximum time of 6 hours. If no equilibrium was achieved the consecutive humidity step was applied after the maximum time of 6 hours. The temperature was 25±0.1° C.
Therefore, flibanserin hydrate of the present invention can be assigned as being non-hygroscopic.

hysteresis between sorption and desorption isotherms (GMS, 0 to 95% RH): no significant hysteresis | physical form after the GMS experiment (PXRD) (after sorption/desorption cycle 0-95-0% RH): same PXRD | mass difference between 0 and 95% RH (equilibrium mass change, GMS) (sorption/desorption cycle 0-95% RH): 0.2 weight %
Compound: O=c1[nH]c2ccccc2n1CCN1CCN(c2cccc(C(F)(F)F)c2)CC1 [flibanserin hydrate]
hygroscopicity / water uptake or loss (in words) (GMS, 0 to 95% RH, hydrate): neither significant water uptake nor loss; also recorded: non-hygroscopic
